The test system of test [1] is chickens. The experiment in a line: Chicken growth trial, mixed mithramycins from Streptomyces argillaceus (Example 7). The format is in vivo. The text has this:
(§1) Groups of 20 randomised 1-day old chickens were place in small floor pens, bedded with wood shavings and provided with automatic drinking fountains. The birds in 16 randomly chosen such pens were fed for 6 days on a nutritionally balanced control diet containing no known growth promoter, and the birds in other pens (four pens per treatment diet) were fed for the same period on the same basal diet to which the indicated weight of mixed mithramycins obtained as in Example 2 or 3, or a known chicken growth promoter, penicillin or nitrovin as a positive control, was added. At the end of the test period, the mean weight per bird in the control group and each test group was determined and the percentage weight increase for each test group as compared with the control group was calculated. The following results were obtained:
The procedure described in Example 4 was repeated, using the mixed mithramycins obtained by culturing Streptomyces argillaceus A.T.C.C. 12956 in known manner, and the following results were obtained: […]

Test [2] concerns chickens. The experiment in a line: Chicken growth trial, pen of 20 birds (Example 5). Particulars: for Mean final weight-20 birds: mean total weight of a pen of 20 birds. The format is in vivo.
Text: as §1
In a further growth trial, the procedure described in Example 4 was repeated. In this case, the weights are expressed as the mean total weight of a pen of 20 birds.

Test [3] concerns chickens. In words: Chicken growth trial, magnesium chelate of mithramycin A from S. argillaceus (Example 9). The format is in vivo. Particulars: * P<0.001.
Text: The procedure described in Example 4 was repeated, using the magnesium chelate of mithramycin A, obtained in known manner from fermentation of S. argillaceus A.T.C.C.
Test [4] has as its system chickens. The experiment in a line: Chicken growth trial, magnesium chelate of Example 2 (Example 8). The test is classed as in vivo. The following applies: * P<0.001.
Description: Groups of 20 randomised 1-day old chickens were place in small floor pens, bedded with wood shavings and provided with automatic drinking fountains. […] At the end of the test period, the mean weight per bird in the control group and each test group was determined and the percentage weight increase for each test group as compared with the control group was calculated.
For test [5], the system named is chickens. The experiment in a line: Chicken growth trial, chromomycin A3 (Example 12). The format is in vivo.
Text: as §1
The procedure described in Example 4 was repeated, using chromomycin A3, obtained from Takeda Chemical Industries Ltd., Osaka, Japan, instead of the mixed mithramycins.

Test [6] has as its system chickens. The experiment in a line: Chicken growth trial, 1-day old chickens, 6 days (Example 4). The test is classed as in vivo. Particulars: for Mean final weight per bird: * significant at p<0.001.
Text: as §1, with “calculated.” for “calculated. The following results were obtained:”

Test [7] relates to pigs. The experiment in a line: Pig growth trial, 9 weeks (Example 11). The test is classed as in vivo. The text has this:
Seventy-two pigs weighing approximately 20kg. each were allocated into 8 matched treatment groups of 9 pigs, on the basis of sex and live weight. Each treatment group was allocated to one particular diet, and each animal in each group was fed individually on its appropriate diet, accurately weighed according to a feeding scale based on live weight, and adjusted weekly. The daily live weight gain in gammes (DLWG) and food conversion ratio (FCR -- the ratio of kg. feed per kg. of live weight gain) were determined for each group at the end of a 9 week trial period.

In test [8] the test system is discard cockerels. The experiment in a line: Growth trial in discard cockerels, 4 weeks (Example 10). The test is classed as in vivo, chicken. Particulars: 10 ppm in basal diet.
Text: as §1
The procedure described in Example 4 was repeated using 4 pens each of 30 discard cockerels for each diet, and allowing the trial to run for 4 weeks.

The mark [9] stands for this setting: 10 ppm in basal diet, nitrovin * p<0.001, chromomycin A3 *** p<0.05.

SMILES strings stand for the structures.

With `CC1(C)S[C@@H]2[C@H](NC(=O)Cc3ccccc3)C(=O)N2[C@H]1C(=O)O` [penicillin], the “% effect v. control” value in test [1] (25 ppm in basal diet) is 18.8%; in test [2] (25 ppm in basal diet), 18.25%; in test [3] (25 ppm in basal diet), 16.1%; in test [4] (25 ppm in basal diet), 16.1%; in test [5] (25 ppm in basal diet) it was 12.7%. The “Mean final weight per birds” value in test [1] (25 ppm in basal diet) turned out to be 47.6 g. Further, the “Mean final weight-20 birds” value in test [2] (25 ppm in basal diet) is 876 g. Besides, the “Mean final weight per bird” value is 47.95 g in test [3] (25 ppm in basal diet); 47.95 g in test [4] (25 ppm in basal diet); 46.73 g in test [5] (25 ppm in basal diet, * significant at p<0.001); 42.57 g in test [6] (25 ppm in basal diet). Moreover, in test [6] (25 ppm in basal diet), the “% effect v. control (weight increase)” value is listed as 11.6%.

Regarding `COC(=O)N/N=C/c1c[n+]([O-])c2ccccc2[n+]1[O-]` [carbadox], the “FCR (food conversion ratio)” value in test [7] (high copper diet, 20 ppm, * significant at p<0.05) is 2.184 kg. feed per kg. of live weigh; in test [7] (low copper diet, 20 ppm), 2.292 kg. feed per kg. of live weigh. For the same compound, the “DLWG (daily live weight gain)” value in test [7] (high copper diet, 20 ppm, ** significant at p<0.01) is 672.7 gammes; in test [7] (low copper diet, 20 ppm, * significant at p<0.05) it was 630.6 gammes.

Turning to `N=C(N)NN=C(/C=C/c1ccc([N+](=O)[O-])o1)/C=C/c1ccc([N+](=O)[O-])o1` [nitrovin], the “DLWG (daily live weight gain)” value is 579.2 gammes in test [7] (high copper diet, 10 ppm) and 567.0 gammes in test [7] (low copper diet, 10 ppm). The “FCR (food conversion ratio)” value is 2.308 kg. feed per kg. of live weigh in test [7] (high copper diet, 10 ppm) and 2.381 kg. feed per kg. of live weigh in test [7] (low copper diet, 10 ppm). Further, the “% effect v. control” value is listed as 12.9% in test [1] (10 ppm in basal diet); 11.6% in test [2] (10 ppm in basal diet); 10.6% in test [3] (10 ppm in basal diet); 10.6% in test [4] (10 ppm in basal diet); 9.7% in test [5] (10 ppm in basal diet). Moreover, the “Mean final weight per birds” value in test [1] (10 ppm in basal diet) came to 45.2 g. For the same compound, the Food conversion ratio in test [8] (** significant at p<0.001) was determined as 1.800. In addition, the “Mean final weight per bird” value in test [8] (mixed mithramycins * significant at p<0.01, nitrovin unmarked) amounted to 339 g; in test [3] (10 ppm in basal diet), 45.67 g; in test [4] (10 ppm in basal diet), 45.67 g; in test [5] (setting [9]) it was 45.46 g; in test [6] (10 ppm in basal diet), 42.99 g. Besides, the “Mean final weight-20 birds” value in test [2] (10 ppm in basal diet) stood at 826 g. The “% effect v. control (weight increase)” value in test [6] (10 ppm in basal diet) was determined as 12.7%.

`CO[C@@H]1[C@H](O)C[C@@H](O[C@@H]2C[C@H](Oc3cc4cc5c(c(O)c4c(O)c3C)C(=O)[C@@H](O[C@H]3C[C@@H](O[C@H]4C[C@@H](O[C@H]6C[C@](C)(O)[C@@H](OC(C)=O)[C@H](C)O6)[C@H](O)[C@@H](C)O4)[C@H](O)[C@@H](C)O3)[C@H]([C@H](OC)C(=O)[C@@H](O)[C@@H](C)O)C5)O[C@H](C)[C@@H]2OC(C)=O)O[C@@H]1C` [chromomycin A3]: the “% effect v. control” value in test [5] (5 ppm in basal diet) stood at 7.3%; in test [5] (10 ppm in basal diet) it was 5.4%. Besides, the “Mean final weight per bird” value in test [5] (5 ppm in basal diet, ** significant at p<0.01) worked out at 44.51 g; in test [5] (setting [9]), 43.68 g.

For the origin of these results see patent US4141974A, “Veterinary method employing certain aureolic acid compounds” (Imperial Chemical Industries Limited, priority 1976, dated 1979).
